The record followed here is patent US20100130737A1, “Regulating Agent of GPR34 Receptor Function” (TAKEDA PHARMACEUTICAL COMPANY LIMITED, priority 2005, published 2010).

As usually defined, the melting point is the temperature of the solid-liquid transition. The compound `O=C(Cc1ccc(OCc2ccccc2C(=O)O)cc1)NC1(C(=O)O)Cc2ccc(-c3ccc(Cl)cc3)cc2C1` (stereo not drawn) [Example B190, 2-[({4-[(2-Carboxybenzyl)oxy]phenyl}acetyl)amino]-5-(4-chlorophenyl)indan-2-carboxylic acid] registered a melting point of 209 to 211 °C.

On to `O=C(CC1CCN(C(=O)c2ccc(F)cc2)CC1)NC1(C(=O)O)Cc2ccc(-c3ccc(Cl)cc3)cc2C1` (stereo not drawn) [Example B166, 5-(4-Chlorophenyl)-2-({[1-(4-fluorobenzoyl)piperidin-4-yl]acetyl}amino)indan-2-carboxylic acid], for which the melting point turned out to be 242 °C.

The compound `O=C(O)CNC(=O)C1(NC(=O)Cc2ccc(OCc3ccccc3)cc2)Cc2ccc(-c3ccc(Cl)cc3)cc2C1` (stereo not drawn) [Example B148, N-{[2-({[4-(Benzyloxy)phenyl]acetyl)amino)-5-(4-chlorophenyl)-2,3-dihydro-1H-inden-2-yl]carbonyl}glycine] registered a melting point of 217 to 218 °C.

Turning to `O=C(NC(Cc1ccc(OCc2cccc(F)c2)cc1)C(=O)O)c1cn2cc(-c3ccc(Cl)cc3)ccc2n1` (stereo not drawn) [Example E10], the melting point stood at 252 °C.

`O=C(Cc1ccc(OCc2ccc(C(F)(F)F)cc2)cc1)NC1(C(=O)O)Cc2ccc(-c3ccc(Cl)cc3)cc2C1` (stereo not drawn) [Example B145, 5-(4-Chlorophenyl)-2-{[(4-{[4-(trifluoromethyl)benzyl]oxy}phenyl)acetyl]amino)indan-2-carboxylic acid] displayed a melting point of 237 to 238 °C.

As to `O=C(CSc1ccc2ccccc2c1)NC1(C(=O)O)Cc2ccc(-c3ccc(Cl)cc3)cc2C1` (stereo not drawn) [Example B171, 5-(4-Chlorophenyl)-2-{[(2-naphthylthio)acetyl]amino)indan-2-carboxylic acid], the melting point lay in the range of 223 to 225 °C.

In turn, `O=C(Cc1ccc(Cl)cc1)NC1(C(=O)O)Cc2ccc(-c3ccc(Cl)cc3)cc2C1` (stereo not drawn) [Example B127, 5-(4-Chlorophenyl)-2-{[(4-chlorophenyl)acetyl]amino}indan-2-carboxylic acid] gave a melting point of 251 °C.

`O=C(/C=C/c1cccc(-c2ccc(Cl)cc2)n1)NC(Cc1ccc(OCc2ccccc2)cc1)C(=O)O` (stereo not drawn) [Example D3, O-Benzyl-N-{3-[6-(4-chlorophenyl)pyridin-2-yl]acryloyl}tyrosine]: the melting point fell in the range of 226 to 228 °C.

`O=C(Cc1ccc(Oc2ccc(F)cc2)cc1)NC1(C(=O)O)Cc2ccc(-c3ccc(Cl)cc3)cc2C1` (stereo not drawn) [Example B161, 5-(4-Chlorophenyl)-2-({[4-(4-fluorophenoxy)phenyl]acetyl}amino)indan-2-carboxylic acid]: the melting point is 232 to 234 °C.

In turn, `O=C(N[C@@H](Cc1ccc(OCc2ccoc2)cc1)C(=O)O)c1cc2cc(-c3ccc(Cl)cc3)ccc2o1` [Example C152, N-{[5-(4-Chlorophenyl)-1-benzofuran-2-yl]carbonyl}-O-(3-furylmethyl)tyrosine] gave a melting point of 211 to 212 °C.

The compound `O=C(Cc1ccc(NC(=O)c2ccc(F)cc2)cc1)NC1(C(=O)O)Cc2ccc(-c3ccc(Cl)cc3)cc2C1` (stereo not drawn) [Example B140, 5-(4-Chlorophenyl)-2-[({4-[(4-fluorobenzoyl)amino]phenyl}acetyl)amino]indan-2-carboxylic acid] gave a melting point of 252 to 254 °C.

Compound `Cc1c(C(=O)N[C@@H](Cc2ccc(OCc3ccsc3)cc2)C(=O)O)oc2cc(-c3ccc(Cl)cc3)ccc12` [Example C118, N-{[6-(4-Chlorophenyl)-3-methyl-1-benzofuran-2-yl]carbonyl}-O-(3-thienylmethyl)-L-tyrosine] gave a melting point of 111 to 113 °C.

With `O=C(CSc1nc2ccccc2o1)NC1(C(=O)O)Cc2ccc(-c3ccc(Cl)cc3)cc2C1` (stereo not drawn) [Example B169, 2-{[(1,3-Benzoxazol-2-ylthio)acetyl]amino}-5-(4-chlorophenyl)indan-2-carboxylic acid], the melting point is 227 to 230 °C.

As to `O=C(O)CNC(=O)C1(NC(=O)Cc2ccc(OCc3ccc(F)cc3)cc2)Cc2ccc(-c3ccc(Cl)cc3)cc2C1` (stereo not drawn) [Example B149, N-({5-(4-Chlorophenyl)-2-[({4-[(4-fluorobenzyl)oxy]phenyl}acetyl)amino]-2,3-dihydro-1H-inden-2-yl}carbonyl)glycine], the melting point is 209 to 210 °C.

For `O=C(CN1CCN(c2ccccc2)CC1)NC1(C(=O)O)Cc2ccc(-c3ccc(Cl)cc3)cc2C1` (stereo not drawn) [Example B124, 5-(4-Chlorophenyl)-2-{[(4-phenylpiperazine-1-yl)acetyl]amino)indan-2-carboxylic acid], the melting point was determined as 247 °C.

For the compound `O=C(Cc1ccc(OCc2ccccc2)cc1)Nc1c(C(=O)O)oc2cc(-c3ccc(Cl)cc3)ccc12` [Example A23, 3-({[4-(Benzyloxy)phenyl]acetyl}amino)-6-(4-chlorophenyl)-1-benzofuran-2-carboxylic acid], the melting point was in the range of 211 to 212 °C.

Compound `Cc1c(C(=O)N[C@@H](Cc2ccc(OCc3ccoc3)cc2)C(=O)O)oc2ccc(-c3ccc(Cl)cc3)cc12` [Example C150, N-{[5-(4-Chlorophenyl)-3-methyl-1-benzofuran-2-yl]carbonyl}-O-(3-furylmethyl)tyrosine] registered a melting point of 196 to 197 °C.

In the case of `O=C(NC(Cc1ccc(OCc2ccccc2)cc1)c1noc(=O)[nH]1)c1cn2cc(-c3ccc(Cl)cc3)ccc2n1` (stereo not drawn) [Example E30, N-[2-[4-(Benzyloxy)phenyl]-1-(5-oxo-4,5-dihydro-1,2,4-oxadiazol-3-yl)ethyl]-6-(4-chlorophenyl)imidazo[1,2-a]pyridine-2-carboxamide], the melting point turned out to be 167 °C.

Turning to `Nc1c(C(=O)NC(Cc2ccc(OCc3ccccc3)cc2)C(=O)O)oc2ccc(-c3ccc(Cl)cc3)cc12` (stereo not drawn) [Example C149], the melting point worked out at 250 °C.

`O=C(NC1(C(=O)O)Cc2ccc(-c3ccc(Cl)cc3)cc2C1)[C@@H](O)c1ccccc1` (stereo partly drawn) [Example B179, 5-(4-Chlorophenyl)-2-{[(2S)-2-hydroxy-2-phenylacetyl]amino}indan-2-carboxylic acid]: the melting point came to 156 °C.

With `O=C(O)CN(Cc1ccc(OCc2ccccc2)cc1)C(=O)c1cn2ccc(-c3ccc(Cl)cc3)cc2n1` [Example E52, N-[4-(Benzyloxy)benzyl]-N-{[7-(4-chlorophenyl)imidazo[1,2-a]pyridin-2-yl]carbonyl}glycine], the melting point was 186 °C.

Consider `O=C(Cc1ccc(OCc2ccsc2)cc1)NC1(C(=O)O)Cc2ccc(-c3ccc(Cl)cc3)cc2C1` (stereo not drawn) [Example B147, 5-(4-Chlorophenyl)-2-({[4-(3-thienylmethoxy)phenyl]acetyl}amino)indan-2-carboxylic acid], for which the melting point fell in the range of 224 to 226 °C.

As to `O=C(Cc1ccc(OCc2ccc(F)cc2Cl)cc1)NC1(C(=O)O)Cc2ccc(-c3ccc(Cl)cc3)cc2C1` (stereo not drawn) [Example B144, 2-[({4-[(2-Chloro-4-fluorobenzyl)oxy]phenyl}acetyl)amino]-5-(4-chlorophenyl)indan-2-carboxylic acid], the melting point fell in the range of 200 to 201 °C.

Compound `Cc1ccc(COc2ccc(C[C@H](NC(=O)c3cc4cc(-c5ccc(Cl)cc5)ccc4s3)C(=O)O)cc2)cc1` [Example C134, N-{[5-(4-Chlorophenyl)-1-benzothiophene-2-yl]carbonyl}-O-(4-methylbenzyl)tyrosine] came in with a melting point of 208 °C.
